These results are taken from publication PMC3214044, “In Vitro Recombination of Non-Homologous Genes Can Result in Gene Fusions that Confer a Switching Phenotype to Cells” (PLoS ONE, 2011).

The test system of one assay is T1, c4.
T1 construct: gene malE
The settings on record: read-out: Km (μM) / - Maltose; 10 mM sodium phosphate pH 7.0, 37°C, without maltose; BLA domain site; substrate range 100-400 µM, above the Km.

The next assay has as its system T2, Ph8.
T2 construct: gene malE
The settings on record: read-out: Km (μM) / - Maltose; 10 mM sodium phosphate pH 7.0, 37°C, without maltose; BLA domain site.

For `CC1(C)S[C@@H]2[C@H](NC(=O)[C@H](N)c3ccccc3)C(=O)N2[C@H]1C(=O)O` [ampicillin], the Km was 73 ± 4 µM in the assay with c4 and 730 ± 120 µM in the assay on Ph8.
